Values belong to the compound of their own block, whether it stands above or below them.
Legend:
[1] = biological target: T1, Calpain-1 catalytic subunit (Homo sapiens, UniProt P07384); assay: (§1) Inhibitory activity towards human calpain I
T1 sequence (P07384 whole entry): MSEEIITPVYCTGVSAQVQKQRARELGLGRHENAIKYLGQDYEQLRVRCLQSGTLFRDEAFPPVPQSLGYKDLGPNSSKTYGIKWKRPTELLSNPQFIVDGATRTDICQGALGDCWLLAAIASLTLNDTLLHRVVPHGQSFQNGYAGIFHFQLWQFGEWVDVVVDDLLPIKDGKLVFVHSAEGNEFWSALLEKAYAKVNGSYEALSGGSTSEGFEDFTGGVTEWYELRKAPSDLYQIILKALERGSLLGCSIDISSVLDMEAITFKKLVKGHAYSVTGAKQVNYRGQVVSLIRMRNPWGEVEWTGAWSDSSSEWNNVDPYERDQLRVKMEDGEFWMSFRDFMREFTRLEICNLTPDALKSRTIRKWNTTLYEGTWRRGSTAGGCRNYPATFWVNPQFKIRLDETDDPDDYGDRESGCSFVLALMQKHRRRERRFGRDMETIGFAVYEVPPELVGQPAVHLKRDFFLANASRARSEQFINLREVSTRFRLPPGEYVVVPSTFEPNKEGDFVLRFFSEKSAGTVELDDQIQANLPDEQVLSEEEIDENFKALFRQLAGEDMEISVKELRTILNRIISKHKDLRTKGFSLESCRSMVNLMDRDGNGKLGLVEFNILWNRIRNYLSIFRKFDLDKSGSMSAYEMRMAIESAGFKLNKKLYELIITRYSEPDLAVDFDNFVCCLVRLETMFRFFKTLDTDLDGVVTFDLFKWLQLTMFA

[2] = biological target: T1, Calpain-1 catalytic subunit; assay: Compound was evaluated for inhibitory activity towards human calpain I isomer 1
MOLT-4 = assay: Inhibitory concentration against MOLT-4 cells (human T-cell leukemia cell line)
[3] = biological target: T1, Calpain-1 catalytic subunit; assay: Inhibitory activity against calpain-I
[4] = biological target: T1, Calpain-1 catalytic subunit; assay: as §1; remark: listed apart in the source

- IC50 [1]: ~1000 nM
- IC50 [2]: 85 nM
Compound: CN1C(=O)c2ccccc2CC1C(=O)N[C@H](C=O)Cc1ccccc1 (stereo partly specified)

- IC50 (MOLT-4): 1800 nM
Compound: CN1C(C(=O)N[C@H](C=O)CCCCNS(=O)(=O)c2ccccc2)Cc2cc3c(cc2S1(=O)=O)OCCO3 (stereo partly specified)

- IC50 [1]: 1000 nM
Compound: COc1cc2c(cc1OC)S(=O)(=O)N(Cc1ccccc1)C(C(=O)N[C@H](C=O)Cc1ccccc1)C2 (stereo partly specified)

- IC50 [3]: 11 nM
Compound: CS(=O)(=O)NC(COCc1ccccc1)C(=O)N[C@H](C=O)Cc1ccccc1 (stereo partly specified)

- IC50 (MOLT-4): 900 nM
Compound: CN1C(C(=O)N[C@H](C=O)Cc2ccccc2)=Cc2cc3c(cc2S1(=O)=O)OCCO3

- IC50 (MOLT-4): 1900 nM
Compound: COc1cc2c(cc1OC)S(=O)(=O)N(C)C(C(=O)N[C@H](C=O)Cc1ccccc1)C2 (stereo partly specified)

- IC50 (MOLT-4): 2000 nM
Compound: CN1C(C(=O)N[C@H](C=O)Cc2ccccc2)Cc2cc3c(cc2S1(=O)=O)OCCO3 (mixture of isomers)

- IC50 (MOLT-4): 4100 nM
- IC50 [1]: 500 nM
Compound: CN1C(C(=O)N[C@H](C=O)Cc2ccccc2)Cc2cc(N3CCOCC3)ccc2S1(=O)=O (stereo partly specified)

- IC50 [2]: ~5000 nM
Compound: O=C[C@H](Cc1ccccc1)NC(=O)C1Cc2ccccc2C(=O)N1 (stereo partly specified)

- IC50 [3]: 20 nM
Compound: O=C[C@H](Cc1ccccc1)NC(=O)C(Cc1ccccc1)NS(=O)(=O)c1ccccc1 (stereo partly specified)

- IC50 [4]: 700 nM
- IC50 [1]: 800 nM
Compound: COc1cc2c(cc1OC)S(=O)(=O)NC(C(=O)N[C@H](C=O)Cc1ccccc1)C2 (stereo partly specified)

- IC50 (MOLT-4): 2200 nM
Compound: COc1cc2c(cc1OC)S(=O)(=O)OC(C(=O)N[C@H](C=O)Cc1ccccc1)C2 (mixture of isomers)

- IC50 (MOLT-4): 1700 nM
Compound: CN1C(C(=O)N[C@H](C=O)Cc2ccccc2)Cc2ccccc2S1(=O)=O (stereo partly specified)

- IC50 (MOLT-4): 2600 nM
Compound: CC(C)N1C(C(=O)N[C@H](C=O)Cc2ccccc2)Cc2cc3c(cc2S1(=O)=O)OCCO3 (mixture of isomers)

- IC50 (MOLT-4): 3200 nM
Compound: COC1=C(C(=O)N[C@H](C=O)Cc2ccccc2)N(C)S(=O)(=O)c2ccccc21

- IC50 [4]: 200 nM
- IC50 [1]: 200 nM
Compound: CC(C)CN1C(C(=O)N[C@H](C=O)Cc2ccccc2)Cc2cc(Cl)ccc2S1(=O)=O (stereo partly specified)

- IC50 (MOLT-4): 2200 nM
Compound: CN1C(C(=O)N[C@H](C=O)Cc2ccccc2)Cc2cc(Cl)ccc2S1(=O)=O (stereo partly specified)

Reference: ChEMBL document CHEMBL1134781, “1,2-Benzothiazine 1,1-dioxide P(2)-P(3) peptide mimetic aldehyde calpain I inhibitors” (J Med Chem, 2001)
